# Earlier results in US11304900B1, “Transparent colloidal vitamin supplement blend” (Quicksilver Scientific, Inc., priority 2017, dated 2022).
# Where two headings read alike, the source gives them in different places.
# Columns and labels:
# [1] = not given; remark: listed apart in the source
# [2] = in vivo
Compound,mean peak plasma level (IV administration of 50 g/day) [mg/dL],"increase of plasma concentration (daily intake increased from 200 mg/day to 2,500 mg/day) [%]",highest blood serum level observed (oral administration of pharmacological doses) [mg/dL],plasma concentration (oral daily intake 200 mg/day) [mg/dL],"plasma concentration (oral daily intake 2,500 mg/day) [mg/dL]",blood serum concentration at which antiviral effect has been demonstrated [1] [mg/dL],change in serum levels ([2]; iv),change in blood serum magnesium concentration ([2]; po)
"O=C1O[C@H]([C@@H](O)CO)C(O)=C1O [Vitamin C, ascorbic acid]",80,25,9.3,1.2,1.5,10 to 15,–,–
[Mg+2] [magnesium],–,–,–,–,–,–,double or triple,little or no change
